Data on 6 molecules can be found in patent publication US5391555A, “Methods for treating inflammatory bowel disease with leukotriene synthesis inhibitors” (Miles Inc., priority 1993, dated 1995).

Assay [1] concerns LTB4 / human blood polymorphonuclear leukocytes (PMN). Description: response of human blood polymorphonuclear leukocytes (PMN): A23187-stimulated LTB4 in human whole blood. The assay is classed as cell-based. Conditions: Leukocyte, 0.5 h, LTB4, 30 μM ionophore A23187, 30 min, 37° C., read-out: ED50 human whole blood. As for the experimental part:
For evaluation of the response of human blood polymorphonuclear leukocytes (PMN), 0.5 ml aliquots of human blood with heparin as the anticoagulant are preincubated for 10 minutes with 2 μl dimethylsulfoxide (DMSO) alone or with DMSO containing the compound to be tested (shaken in water bath at 37° C.).
The PMN are then stimulated with a final concentration 30 μM of the ionophore A23187 for 30 minutes at 37° C. The reaction is terminated with 1 ml methanol. The incubate is cooled 20 minutes in an ice bath, vortexed, then centrifuged at 13,000 g.
The amount of LTB4 present in the removed supernatant is analysed by HPLC and/or radioimmune assays.

Assay [2] concerns human bronchial muscle. The assay is described as follows: human bronchial muscle contraction stimulated by anti-human IgE. The assay is classed as cell-based. The note with it: for IC50: contraction stimulated by anti-human IgE (1/1000), read-out: ED50 human bronchial muscle. Here is the method: For the measurement of human bronchial muscle contraction, bronchial rings were obtained from patients undergoing surgical resection of the lungs typical for lung cancer. The muscle rings were set up in organ baths under an initial load of 3 g and contracted with 100 μM acetylcholine in Tyrode's solution to provide a standardized contraction. The organs were then washed until they returned to the baseline tension in Tyrode's solution containing atropine 1 μM, indomethacin 3 μM and polaramine 1 μM at 37° C.
Contraction was stimulated by the treatment of the muscle strips with anti-human IgE (1/1000) with or without LSI. The intensity of the contractions were expressed as the percentage of the acetylcholine-inducedcontraction. The percentage of inhibition by the LSI was calculated from the ratio of the relative contractions. The activity of several of the well known LSIs of other structural classes (Zileuton & MK886) are compared below with the quinolines of the present invention.

In assay [3] the test system is edema of the mouse ear. The assay is described as follows: Mouse Ear Inflammation Test (arachidonic acid-induced edema). The assay is classed as in vivo. Conditions: oral, 60 minutes before arachidonic acid, swelling at 30 minutes, averaged over several experiments, read-out: Edema formation - ED50. As for the experimental part: Because it is known that leukotrienes are the major mediators of the edema which follows the application of arachidonic acid on the skin of the mouse ear and because the human clinical trials have implicated leukotrienes in the pathology of Inflammatory Bowel Disease (IBD), the mouse ear inflammation test can be used as a model to predict efficacy in IBD.
In this test edema is induced by the topical application of 10 μl of a 20% arachidonic acid solution on the mouse ear. 60 minutes before arachidonic acid application the animals were treated orally with compound or vehicle. 30 minutes after the induction of inflammation the swelling of the ear was measured. The results averaged over several experiments are shown below.

Assay [4] has as its system LTB4. Description: TNBS-induced colitis in rats: LTB4 synthesis by excised colonic tissue. The assay is classed as in vivo, Male Wistar rats. The note with it: 30 and 100 mg/kg orally bid, 7 days; tissue incubated in vitro 20 minutes. As for the experimental part: (§1) A colitis resembling human ulcerative colitis can be induced in rats by the intracolonic infusion of trinitrobenzene sulfonic acid (Wallace et al., 1990, Am J Physiol. 258:G527-34).
(§2) Male Wistar rats were lightly anesthetized with ether, and a 2.3 mm rubber cannula inserted into the lumen of the colon via the anus. The cannula was advanced so that the tip was approximately 8 cm proximal to the anus. Colitis is induced by the administration of 0.25 ml of 50% ethanol (vol/vol) containing 30 mg of 2,4,6-trinitrobenzene sulfonic acid (TNB) through the cannula. After instilling the TNB-ethanol solution, the cannula was left in place for a few seconds then gently removed.
(§3) Animals were sacrificed at various time intervals after the administration of TNB-ethanol for examination of the level of LTB4 in the tissue and for histological examination.
(§4) R-(-)-2-cyclopentyl-2-[4-(2-quinolinyl-methoxy)-phenyl]-acetic acid, at doses of 30 and 100 mg/kg or placebo is administered orally to these animals bid beginning 2 hours before induction of colitis and continuing for the next 7 days. Two hours after the administration of the test compound, animals are sacrificed and samples of the grossly inflammed colonic tissue are excised and incubated in vitro for 20 minutes.

The subject of assay [5] is TxB2. The assay is described as follows: TNBS-induced colitis in rats: TxB2 synthesis by excised colonic tissue. The note with it: 30 and 100 mg/kg orally bid, 7 days; tissue incubated in vitro 20 minutes. Type of assay: in vivo, Male Wistar rats. Here is the method: as §1, §2, §3, §4
Assay [6] concerns TNBS-induced colitis in rats. Description: TNBS-induced colitis in rats: colonic damage. The assay is classed as in vivo, Male Wistar rats. Conditions: 30 and 100 mg/kg orally bid, 7 days; 14 days following induction; vs placebo. Here is the method: as §1, §2, §3
R-(-)-2-cyclopentyl-2-[4-(2-quinolinyl-methoxy)-phenyl]-acetic acid, at doses of 30 and 100 mg/kg or placebo is administered orally to these animals bid beginning 2 hours before induction of colitis and continuing for the next 7 days. Two hours after the administration of the test compound, animals are sacrificed and samples of the grossly inflammed colonic tissue are excised and incubated in vitro for 20 minutes. […]

Assay [7] relates to bronchodilator in man. Conditions: compared with prediction from inhibition of neutrophil-dependent LTB4 synthesis at blood concentration; cited from earlier work.
Assay [8] has as its system Dextran Sulfate-induced colitis in mice. The assay is described as follows: Dextran Sulfate-induced colitis in mice. Type of assay: in vivo. Conditions: 10 mg/kg or 30 mg/kg orally bid; 5% dextran sulfate in drinking water. The text has this: Mice, when provided 5% high molecular weight dextran sulfate in their drinking water for 5-7 days, develop an acute colitis with diarrhea, gross rectal bleeding, and weight loss (Okayasu et al., 1990, Gastroenterol, 98:694-702).

Broadly, the ED50 is the midpoint of the dose-response relation. With `CC(C)Cc1cc(C(C(=O)O)C2CCCCCC2)ccc1OCc1ccc2ccccc2n1` (single isomer, unassigned; (-)) [Formula III, (-)-2-cycloheptyl-2-[3-isobutyl-4-(2-quinolinyl-methoxy)-phenyl]-acetic acid], the IC50 in assay [1] was 3000 nM; in assay [2], 1000 nM. In addition, the ED50 in assay [3] is 12.5 mg/kg.

`O=C(O)C(O)(c1ccc(OCc2ccc3ccccc3n2)cc1)C1Cc2ccccc2C1` (single isomer, unassigned; (-)) [Formula IV, (-)-2-hydroxy-2-(2-indanyl)-2-[4-(2-quinolinyl-methoxy)-phenyl]-acetic acid]: the IC50 in assay [1] came to 4500 nM; in assay [2], 100 nM. Further, the ED50 in assay [3] was found to be 15 mg/kg.

With `O=C(O)[C@@H](c1ccc(OCc2ccc3ccccc3n2)cc1)C1CCCC1` [Formula I, R-(-)-2-cyclopentyl-2-[4-(2-quinolinyl-methoxy)-phenyl]-acetic acid], the IC50 in assay [1] came out at 17000 nM. For the same molecule, the IC50 in assay [2] was found to be 800 nM. Further, the ED50 in assay [3] was 48.7 mg/kg. Also, in assay [4], the “synthesis of LTB4 in culture supernatants of inflamed colonic tissue” value was “markedly inhibited”. In addition, in assay [5], the “synthesis of TxB2 in culture supernatants of inflamed colonic tissue” value is reported as “not of TxB2”. Besides, in assay [6], the “frequency and extent of the ulcerations” value was “reduces both the frequency of adhesions and the frequency and extend of the ulcerations”; the frequency of adhesions result was “reduces both the frequency of adhesions”. Besides, the “activity as a bronchodilator in man” value in assay [7] is “considerably greater than would have been predicted”.

With `CS(=O)(=O)NC(=O)[C@@H](c1ccc(OCc2ccc3ccccc3n2)cc1)C1CCCCCC1` [Formula II, R-(-)-2-cycloheptyl-N-methylsulfonyl-2-[4-(2-quinolinyl-methoxy)-phenyl]-acetamide], in assay [1], the IC50 was determined as 1100 nM. The IC50 in assay [2] was 800 nM. Besides, in assay [3], the 50% effective dose (ED50) stood at 5.2 mg/kg. Moreover, in assay [8], the “occult blood in the stool” value is reported as “reduction in occult blood in the stool”, the stool consistency result is “improvement in stool consistency”, the symptoms of colitis entry was “decrease in the symptoms of colitis” and the weight loss entry is on record as “reduction in weight loss”.

For `CC(C)c1ccc2c(c1)c(SC(C)(C)C)c(CC(C)(C)C(=O)O)n2Cc1ccc(Cl)cc1` [MK886, reference compound], in assay [1], the IC50 was 430 nM. In addition, the “percentage of inhibition, human bronchial muscle” value in assay [2] (@ μM (concentration not given), anti-human IgE (1/1000)) was 0-39%. For the same molecule, the 50% effective dose (ED50) in assay [3] was around 100 mg/kg.

A word on the inhibition: it is how much of the control response was suppressed. As for `CC(c1cc2ccccc2s1)N(O)C(N)=O` (stereo not drawn) [Zileuton, reference compound], the IC50 in assay [1] is 690 nM. Further, the inhibition at 1 µM in assay [2] (@ 1 μM, anti-human IgE (1/1000), read-out: percentage of inhibition, human bronchial muscle) worked out at 4%. For the same molecule, in assay [3], the 50% effective dose (ED50) was found to be 47.4 mg/kg.
